Source: patent US8604023B2, “1,4-benzodiazepinone compounds and their use in treating cancer” (The Regents of the University of Michigan, priority 2009, dated 2013)

Columns and labels:
[1] = tested on: Ramos cells; test: cytotoxicity in Ramos cells; assay type: cell-based; conditions: Homo sapiens
Description: The compounds listed in Table 5 were tested for cytotoxicity in Ramos cells. The assay was conducted as described in K. M. Johnson et al. Chemistry & Biology 2005, 12, 485-496.

[2] = tested on: A549/ATCC; test: cancer cell growth inhibition (SRB); assay type: cell-based, human; conditions: Non-Small Cell Lung Cancer
[3] = tested on: EKVX; test: cancer cell growth inhibition (SRB); assay type: cell-based, human; conditions: Non-Small Cell Lung Cancer
[4] = tested on: HOP-62; test: cancer cell growth inhibition (SRB); assay type: cell-based, human; conditions: Non-Small Cell Lung Cancer
[5] = tested on: HOP-92; test: cancer cell growth inhibition (SRB); assay type: cell-based, human; conditions: Non-Small Cell Lung Cancer
[6] = tested on: NCI-H226; test: cancer cell growth inhibition (SRB); assay type: cell-based, human; conditions: Non-Small Cell Lung Cancer
[7] = tested on: NCI-H23; test: cancer cell growth inhibition (SRB); assay type: cell-based, human; conditions: Non-Small Cell Lung Cancer
[8] = tested on: NCI-H322M; test: cancer cell growth inhibition (SRB); assay type: cell-based, human; conditions: Non-Small Cell Lung Cancer
[9] = tested on: NCI-H460; test: cancer cell growth inhibition (SRB); assay type: cell-based, human; conditions: Non-Small Cell Lung Cancer
[10] = tested on: NCI-H522; test: cancer cell growth inhibition (SRB); assay type: cell-based, human; conditions: Non-Small Cell Lung Cancer
[11] = tested on: COLO 205; test: cancer cell growth inhibition (SRB); assay type: cell-based, human; conditions: Colon Cancer
[12] = tested on: HCC-2998; test: cancer cell growth inhibition (SRB); assay type: cell-based, human; conditions: Colon Cancer
[13] = tested on: HCT-116; test: cancer cell growth inhibition (SRB); assay type: cell-based, human; conditions: Colon Cancer
[14] = tested on: HCT-15; test: cancer cell growth inhibition (SRB); assay type: cell-based, human; conditions: Colon Cancer
[15] = tested on: HT29; test: cancer cell growth inhibition (SRB); assay type: cell-based, human; conditions: Colon Cancer
[16] = tested on: KM12; test: cancer cell growth inhibition (SRB); assay type: cell-based, human; conditions: Colon Cancer
[17] = tested on: SW-620; test: cancer cell growth inhibition (SRB); assay type: cell-based, human; conditions: Colon Cancer
[18] = tested on: BT-549; test: cancer cell growth inhibition (SRB); assay type: cell-based, human; conditions: Breast Cancer
[19] = tested on: HS 578T; test: cancer cell growth inhibition (SRB); assay type: cell-based, human; conditions: Breast Cancer
[20] = tested on: MCF7; test: cancer cell growth inhibition (SRB); assay type: cell-based, human; conditions: Breast Cancer
[21] = tested on: MDA-MB-231/ATCC; test: cancer cell growth inhibition (SRB); assay type: cell-based, human; conditions: Breast Cancer
[22] = tested on: MDA-MB-435; test: cancer cell growth inhibition (SRB); assay type: cell-based, human; conditions: Breast Cancer
[23] = tested on: NCI/ADR-RES; test: cancer cell growth inhibition (SRB); assay type: cell-based, human; conditions: Breast Cancer
[24] = tested on: T-47D; test: cancer cell growth inhibition (SRB); assay type: cell-based, human; conditions: Breast Cancer
[25] = tested on: IGROV1; test: cancer cell growth inhibition (SRB); assay type: cell-based, human; conditions: Ovarian Cancer
[26] = tested on: OVCAR-3; test: cancer cell growth inhibition (SRB); assay type: cell-based, human; conditions: Ovarian Cancer
[27] = tested on: OVCAR-4; test: cancer cell growth inhibition (SRB); assay type: cell-based, human; conditions: Ovarian Cancer
[28] = tested on: OVCAR-5; test: cancer cell growth inhibition (SRB); assay type: cell-based, human; conditions: Ovarian Cancer
[29] = tested on: OVCAR-8; test: cancer cell growth inhibition (SRB); assay type: cell-based, human; conditions: Ovarian Cancer
[30] = tested on: SK-OV-3; test: cancer cell growth inhibition (SRB); assay type: cell-based, human; conditions: Ovarian Cancer
[31] = tested on: CCRF-CEM; test: cancer cell growth inhibition (SRB); assay type: cell-based, human; conditions: Leukemia
[32] = tested on: HL-60(TB); test: cancer cell growth inhibition (SRB); assay type: cell-based, human; conditions: Leukemia
[33] = tested on: K-562; test: cancer cell growth inhibition (SRB); assay type: cell-based, human; conditions: Leukemia
[34] = tested on: MOLT-4; test: cancer cell growth inhibition (SRB); assay type: cell-based, human; conditions: Leukemia
[35] = tested on: RPMI-8226; test: cancer cell growth inhibition (SRB); assay type: cell-based, human; conditions: Leukemia
[36] = tested on: SR; test: cancer cell growth inhibition (SRB); assay type: cell-based, human; conditions: Leukemia
[37] = tested on: 786-0; test: cancer cell growth inhibition (SRB); assay type: cell-based, human; conditions: Renal Cancer
[38] = tested on: A498; test: cancer cell growth inhibition (SRB); assay type: cell-based, human; conditions: Renal Cancer
[39] = tested on: ACHN; test: cancer cell growth inhibition (SRB); assay type: cell-based, human; conditions: Renal Cancer
[40] = tested on: CAKI-1; test: cancer cell growth inhibition (SRB); assay type: cell-based, human; conditions: Renal Cancer
[41] = tested on: RXF 393; test: cancer cell growth inhibition (SRB); assay type: cell-based, human; conditions: Renal Cancer
[42] = tested on: SN12C; test: cancer cell growth inhibition (SRB); assay type: cell-based, human; conditions: Renal Cancer
[43] = tested on: TK-10; test: cancer cell growth inhibition (SRB); assay type: cell-based, human; conditions: Renal Cancer
[44] = tested on: UO-31; test: cancer cell growth inhibition (SRB); assay type: cell-based, human; conditions: Renal Cancer
[45] = tested on: LOXIMVI; test: cancer cell growth inhibition (SRB); assay type: cell-based, human; conditions: Melanoma
[46] = tested on: M14; test: cancer cell growth inhibition (SRB); assay type: cell-based, human; conditions: Melanoma
[47] = tested on: MALME-3M; test: cancer cell growth inhibition (SRB); assay type: cell-based, human; conditions: Melanoma
[48] = tested on: SK-MEL-2; test: cancer cell growth inhibition (SRB); assay type: cell-based, human; conditions: Melanoma
[49] = tested on: SK-MEL-28; test: cancer cell growth inhibition (SRB); assay type: cell-based, human; conditions: Melanoma
[50] = tested on: SK-MEL-5; test: cancer cell growth inhibition (SRB); assay type: cell-based, human; conditions: Melanoma
[51] = tested on: UACC-257; test: cancer cell growth inhibition (SRB); assay type: cell-based, human; conditions: Melanoma
[52] = tested on: UACC-62; test: cancer cell growth inhibition (SRB); assay type: cell-based, human; conditions: Melanoma
[53] = tested on: DU-145; test: cancer cell growth inhibition (SRB); assay type: cell-based, human; conditions: Prostate Cancer
[54] = tested on: PC-3; test: cancer cell growth inhibition (SRB); assay type: cell-based, human; conditions: Prostate Cancer
[55] = tested on: SF-268; test: cancer cell growth inhibition (SRB); assay type: cell-based, human; conditions: CNS Cancer
[56] = tested on: SF-295; test: cancer cell growth inhibition (SRB); assay type: cell-based, human; conditions: CNS Cancer
[57] = tested on: SF-539; test: cancer cell growth inhibition (SRB); assay type: cell-based, human; conditions: CNS Cancer
[58] = tested on: SNB-19; test: cancer cell growth inhibition (SRB); assay type: cell-based, human; conditions: CNS Cancer
[59] = tested on: SNB-75; test: cancer cell growth inhibition (SRB); assay type: cell-based, human; conditions: CNS Cancer
[60] = tested on: U251; test: cancer cell growth inhibition (SRB); assay type: cell-based, human; conditions: CNS Cancer

With `O=C1Nc2ccc(Cl)cc2C(c2ccc(N3CCNCC3)nc2)=NC1Cc1ccccc1Cl` (stereo not drawn) [Compound V-23] the EC50 [1] was no more than 5 µM, the “growth inhibition of the cancer cells” value [2] was “+++ (at least 75% growth inhibition of the cancer cells)” and the “growth inhibition of the cancer cells” value [3] was “+++ (at least 75% growth inhibition of the cancer cells)”. The “growth inhibition of the cancer cells” value [4] was “+++ (at least 75% growth inhibition of the cancer cells)”, the “growth inhibition of the cancer cells” value [5] was “++ (40%-75% growth inhibition of the cancer cells)” and the “growth inhibition of the cancer cells” value [6] was “+ (less than 40% growth inhibition of the cancer cells)”. The “growth inhibition of the cancer cells” value [7] was “++ (40%-75% growth inhibition of the cancer cells)”, the “growth inhibition of the cancer cells” value [8] was “+ (less than 40% growth inhibition of the cancer cells)” and the “growth inhibition of the cancer cells” value [9] was “+++ (at least 75% growth inhibition of the cancer cells)”. The “growth inhibition of the cancer cells” value [10] was “+++ (at least 75% growth inhibition of the cancer cells)”, the “growth inhibition of the cancer cells” value [11] was “++ (40%-75% growth inhibition of the cancer cells)” and the “growth inhibition of the cancer cells” value [12] was “+++ (at least 75% growth inhibition of the cancer cells)”. For the same compound, the “growth inhibition of the cancer cells” value [13] was “+++ (at least 75% growth inhibition of the cancer cells)”, the “growth inhibition of the cancer cells” value [14] was “+++ (at least 75% growth inhibition of the cancer cells)” and the “growth inhibition of the cancer cells” value [15] was “+++ (at least 75% growth inhibition of the cancer cells)”. The “growth inhibition of the cancer cells” value [16] was “+++ (at least 75% growth inhibition of the cancer cells)”, the “growth inhibition of the cancer cells” value [17] was “+++ (at least 75% growth inhibition of the cancer cells)” and the “growth inhibition of the cancer cells” value [18] was “+++ (at least 75% growth inhibition of the cancer cells)”. The “growth inhibition of the cancer cells” value [19] was “++ (40%-75% growth inhibition of the cancer cells)”, the “growth inhibition of the cancer cells” value [20] was “+++ (at least 75% growth inhibition of the cancer cells)” and the “growth inhibition of the cancer cells” value [21] was “+++ (at least 75% growth inhibition of the cancer cells)”. The “growth inhibition of the cancer cells” value [22] was “+++ (at least 75% growth inhibition of the cancer cells)”, the “growth inhibition of the cancer cells” value [23] was “+ (less than 40% growth inhibition of the cancer cells)” and the “growth inhibition of the cancer cells” value [24] was “++ (40%-75% growth inhibition of the cancer cells)”. For the same compound, the “growth inhibition of the cancer cells” value [25] was “+++ (at least 75% growth inhibition of the cancer cells)”, the “growth inhibition of the cancer cells” value [26] was “+++ (at least 75% growth inhibition of the cancer cells)” and the “growth inhibition of the cancer cells” value [27] was “++ (40%-75% growth inhibition of the cancer cells)”. For the same compound, the “growth inhibition of the cancer cells” value [28] was “+++ (at least 75% growth inhibition of the cancer cells)”, the “growth inhibition of the cancer cells” value [29] was “++ (40%-75% growth inhibition of the cancer cells)” and the “growth inhibition of the cancer cells” value [30] was “++ (40%-75% growth inhibition of the cancer cells)”. For the same compound, the “growth inhibition of the cancer cells” value [31] was “++ (40%-75% growth inhibition of the cancer cells)”, the “growth inhibition of the cancer cells” value [32] was “+++ (at least 75% growth inhibition of the cancer cells)” and the “growth inhibition of the cancer cells” value [33] was “+++ (at least 75% growth inhibition of the cancer cells)”. For the same compound, the “growth inhibition of the cancer cells” value [34] was “++ (40%-75% growth inhibition of the cancer cells)”, the “growth inhibition of the cancer cells” value [35] was “++ (40%-75% growth inhibition of the cancer cells)” and the “growth inhibition of the cancer cells” value [36] was “++ (40%-75% growth inhibition of the cancer cells)”. The “growth inhibition of the cancer cells” value [37] was “+++ (at least 75% growth inhibition of the cancer cells)”, the “growth inhibition of the cancer cells” value [38] was “+ (less than 40% growth inhibition of the cancer cells)” and the “growth inhibition of the cancer cells” value [39] was “+++ (at least 75% growth inhibition of the cancer cells)”. For the same compound, the “growth inhibition of the cancer cells” value [40] was “+++ (at least 75% growth inhibition of the cancer cells)”, the “growth inhibition of the cancer cells” value [41] was “+++ (at least 75% growth inhibition of the cancer cells)” and the “growth inhibition of the cancer cells” value [42] was “+++ (at least 75% growth inhibition of the cancer cells)”. The “growth inhibition of the cancer cells” value [43] was “+++ (at least 75% growth inhibition of the cancer cells)”, the “growth inhibition of the cancer cells” value [44] was “+++ (at least 75% growth inhibition of the cancer cells)” and the “growth inhibition of the cancer cells” value [45] was “+++ (at least 75% growth inhibition of the cancer cells)”. The “growth inhibition of the cancer cells” value [46] was “+++ (at least 75% growth inhibition of the cancer cells)”, the “growth inhibition of the cancer cells” value [47] was “+++ (at least 75% growth inhibition of the cancer cells)” and the “growth inhibition of the cancer cells” value [48] was “++ (40%-75% growth inhibition of the cancer cells)”. For the same compound, the “growth inhibition of the cancer cells” value [49] was “+++ (at least 75% growth inhibition of the cancer cells)”, the “growth inhibition of the cancer cells” value [50] was “+++ (at least 75% growth inhibition of the cancer cells)” and the “growth inhibition of the cancer cells” value [51] was “+++ (at least 75% growth inhibition of the cancer cells)”. The “growth inhibition of the cancer cells” value [52] was “++ (40%-75% growth inhibition of the cancer cells)”, the “growth inhibition of the cancer cells” value [53] was “+++ (at least 75% growth inhibition of the cancer cells)” and the “growth inhibition of the cancer cells” value [54] was “++ (40%-75% growth inhibition of the cancer cells)”. The “growth inhibition of the cancer cells” value [55] was “++ (40%-75% growth inhibition of the cancer cells)”, the “growth inhibition of the cancer cells” value [56] was “+++ (at least 75% growth inhibition of the cancer cells)” and the “growth inhibition of the cancer cells” value [57] was “+++ (at least 75% growth inhibition of the cancer cells)”. For the same compound, the “growth inhibition of the cancer cells” value [58] was “++ (40%-75% growth inhibition of the cancer cells)”, the “growth inhibition of the cancer cells” value [59] was “++ (40%-75% growth inhibition of the cancer cells)” and the “growth inhibition of the cancer cells” value [60] was “+++ (at least 75% growth inhibition of the cancer cells)”.
